# Assay results from patent US9302999B2, “Substituted triazoles as herbicides” (E. I. DU PONT DE NEMOURS AND COMPANY, priority 2012, dated 2016).
# Legend:
# Format in all cases: in vivo
# [1] = tested on: morningglory (Ipomoea spp.); test: Test A pre-/postemergence: morningglory; conditions: for Morningglory plant response rating: Postemergence; for Plant response rating, Morningglory: Preemergence
# Text: (§1) Seeds of barnyardgrass (Echinochloa crus-galli), crabgrass, large (large crabgrass, Digitaria sanguinalis), foxtail, giant (giant foxtail, Setaria faberii), morningglory (Ipomoea spp.), pigweed (Amaranthus retroflexus), velvetleaf (Abutilon theophrasti), wheat (Triticum aestivum), and corn (Zea mays) were planted into a blend of loam soil and sand and treated preemergence with a directed soil spray using test chemicals formulated in a non-phytotoxic solvent mixture which included a surfactant. At the same time these species were also treated with postemergence applications of test chemicals formulated in the same manner.
# (§2) Plants ranged in height from two to ten cm and were in the one- to two-leaf stage for the postemergence treatment. Treated plants and untreated controls were maintained in a greenhouse for approximately ten days, after which time all treated plants were compared to untreated controls and visually evaluated for injury. Plant response ratings, summarized in Table A, are based on a 0 to 100 scale where 0 is no effect and 100 is complete control. A dash (-) response means no test result.
# [2] = tested on: foxtail, giant (giant foxtail, Setaria faberii); test: Test A pre-/postemergence: foxtail, giant; conditions: for Foxtail, Giant plant response rating: Postemergence; for Plant response rating, Foxtail, Giant: Preemergence
# Text: as §1, §2
# corn (Zea mays) = test: Test A pre-/postemergence: corn; conditions: for Corn plant response rating: Postemergence; for Plant response rating, Corn: Preemergence
# Text: as §1, §2
# [3] = tested on: wheat (Triticum aestivum); test: Test A pre-/postemergence: wheat; conditions: for Wheat plant response rating: Postemergence; for Plant response rating, Wheat: Preemergence
# Text: as §1, §2
# [4] = tested on: velvetleaf (Abutilon theophrasti); test: Test A pre-/postemergence: velvetleaf; conditions: for Velvetleaf plant response rating: Postemergence; for Plant response rating, Velvetleaf: Preemergence
# Text: as §1, §2
# [5] = tested on: barnyardgrass (Echinochloa crus-galli); test: Test A pre-/postemergence: barnyardgrass; conditions: for Barnyardgrass plant response rating: Postemergence; for Plant response rating, Barnyardgrass: Preemergence
# Text: as §1, §2
# [6] = tested on: pigweed (Amaranthus retroflexus); test: Test A pre-/postemergence: pigweed; conditions: for Pigweed plant response rating: Postemergence; for Plant response rating, Pigweed: Preemergence
# Text: as §1, §2
# [7] = tested on: crabgrass, large (large crabgrass, Digitaria sanguinalis); test: Test A pre-/postemergence: crabgrass, large; conditions: for Crabgrass, Large plant response rating: Postemergence; for Plant response rating, Crabgrass, Large: Preemergence
# Text: as §1, §2
# [8] = 125 g ai/ha, 0 to 100 scale, 0 is no effect, 100 is complete control
# [9] = 500 g ai/ha, visual rating on 0 to 100 scale (0 no effect, 100 complete control), approximately ten days
# [10] = 125 g ai/ha, 0 to 100 scale where 0 is no effect and 100 is complete control
# [11] = 500 g ai/ha, 0 to 100 scale, 0 is no effect, 100 is complete control
# [12] = 125 g ai/ha, 0 to 100 scale (0 no effect, 100 complete control)
# [13] = 500 g ai/ha, 0 to 100 scale (0 no effect, 100 complete control)
structure (smiles),measurement,setting,value
Cc1nn(-c2ccc(C(F)(F)F)cc2)nc1Oc1cc(C(F)(F)F)nn1C [Compound 104],Morningglory plant response rating,[1]; [8],60
same,Morningglory plant response rating,[1]; [9],90
same,"Plant response rating, Morningglory",[1]; [10],0
same,"Plant response rating, Morningglory",[1]; [11],0
same,"Foxtail, Giant plant response rating",[2]; [8],20
same,"Foxtail, Giant plant response rating",[2]; [9],50
same,"Plant response rating, Foxtail, Giant",[2]; [10],60
same,"Plant response rating, Foxtail, Giant",[2]; [11],90
same,Corn plant response rating,corn (Zea mays); [8],10
same,Corn plant response rating,corn (Zea mays); [9],20
same,"Plant response rating, Corn",corn (Zea mays); [12],0
same,"Plant response rating, Corn",corn (Zea mays); [11],0
same,Wheat plant response rating,[3]; [8],0
same,Wheat plant response rating,[3]; [9],0
same,"Plant response rating, Wheat",[3]; [10],0
same,"Plant response rating, Wheat",[3]; [11],0
same,Velvetleaf plant response rating,[4]; [8],30
same,Velvetleaf plant response rating,[4]; [9],60
same,"Plant response rating, Velvetleaf",[4]; [10],0
same,"Plant response rating, Velvetleaf",[4]; [11],30
same,Barnyardgrass plant response rating,[5]; [8],20
same,Barnyardgrass plant response rating,[5]; [9],30
same,"Plant response rating, Barnyardgrass",[5]; [12],10
same,"Plant response rating, Barnyardgrass",[5]; [11],20
same,Pigweed plant response rating,[6]; [8],70
same,Pigweed plant response rating,[6]; [9],100
same,"Plant response rating, Pigweed",[6]; [10],30
same,"Plant response rating, Pigweed",[6]; [11],90
same,"Crabgrass, Large plant response rating",[7]; [8],50
same,"Crabgrass, Large plant response rating",[7]; [9],70
same,"Plant response rating, Crabgrass, Large",[7]; [12],60
same,"Plant response rating, Crabgrass, Large",[7]; [11],90
CCc1nn(-c2ccc(C(F)(F)F)cc2)nc1Cn1cnc(C(F)(F)F)c1Cl [Compound 121],Morningglory plant response rating,[1]; [8],0
same,Morningglory plant response rating,[1]; [9],0
same,"Plant response rating, Morningglory",[1]; [10],0
same,"Plant response rating, Morningglory",[1]; [13],0
same,"Foxtail, Giant plant response rating",[2]; [8],0
same,"Foxtail, Giant plant response rating",[2]; [9],0
same,"Plant response rating, Foxtail, Giant",[2]; [10],0
same,"Plant response rating, Foxtail, Giant",[2]; [13],0
same,Corn plant response rating,corn (Zea mays); [8],0
same,Corn plant response rating,corn (Zea mays); [9],10
same,"Plant response rating, Corn",corn (Zea mays); [10],0
same,"Plant response rating, Corn",corn (Zea mays); [13],0
same,Wheat plant response rating,[3]; [8],0
same,Wheat plant response rating,[3]; [9],0
same,"Plant response rating, Wheat",[3]; [10],0
same,"Plant response rating, Wheat",[3]; [13],0
same,Velvetleaf plant response rating,[4]; [8],0
same,Velvetleaf plant response rating,[4]; [9],10
same,"Plant response rating, Velvetleaf",[4]; [10],0
same,"Plant response rating, Velvetleaf",[4]; [13],0
same,Barnyardgrass plant response rating,[5]; [8],0
same,Barnyardgrass plant response rating,[5]; [9],0
same,"Plant response rating, Barnyardgrass",[5]; [10],0
same,"Plant response rating, Barnyardgrass",[5]; [13],0
same,Pigweed plant response rating,[6]; [8],0
same,Pigweed plant response rating,[6]; [9],20
same,"Plant response rating, Pigweed",[6]; [10],0
same,"Plant response rating, Pigweed",[6]; [13],0
same,"Crabgrass, Large plant response rating",[7]; [8],0
same,"Crabgrass, Large plant response rating",[7]; [9],10
same,"Plant response rating, Crabgrass, Large",[7]; [10],0
same,"Plant response rating, Crabgrass, Large",[7]; [13],10
Cc1nn(-c2ccc(F)cc2)nc1Oc1cccc(C(F)(F)F)n1 [Compound 127],Morningglory plant response rating,[1]; [8],20
same,Morningglory plant response rating,[1]; [9],30
same,"Plant response rating, Morningglory",[1]; [10],0
same,"Plant response rating, Morningglory",[1]; [13],0
same,"Foxtail, Giant plant response rating",[2]; [8],10
same,"Foxtail, Giant plant response rating",[2]; [9],20
same,"Plant response rating, Foxtail, Giant",[2]; [10],10
same,"Plant response rating, Foxtail, Giant",[2]; [13],30
same,Corn plant response rating,corn (Zea mays); [8],10
same,Corn plant response rating,corn (Zea mays); [9],20
same,"Plant response rating, Corn",corn (Zea mays); [10],0
same,"Plant response rating, Corn",corn (Zea mays); [13],0
same,Wheat plant response rating,[3]; [8],0
same,Wheat plant response rating,[3]; [9],10
same,"Plant response rating, Wheat",[3]; [10],0
same,"Plant response rating, Wheat",[3]; [13],0
same,Velvetleaf plant response rating,[4]; [8],20
same,Velvetleaf plant response rating,[4]; [9],20
same,"Plant response rating, Velvetleaf",[4]; [10],0
same,"Plant response rating, Velvetleaf",[4]; [13],0
same,Barnyardgrass plant response rating,[5]; [8],10
same,Barnyardgrass plant response rating,[5]; [9],20
same,"Plant response rating, Barnyardgrass",[5]; [10],0
same,"Plant response rating, Barnyardgrass",[5]; [13],10
same,Pigweed plant response rating,[6]; [8],40
same,Pigweed plant response rating,[6]; [9],60
same,"Plant response rating, Pigweed",[6]; [10],0
same,"Plant response rating, Pigweed",[6]; [13],20
same,"Crabgrass, Large plant response rating",[7]; [8],10
same,"Crabgrass, Large plant response rating",[7]; [9],30
same,"Plant response rating, Crabgrass, Large",[7]; [10],10
same,"Plant response rating, Crabgrass, Large",[7]; [13],40
